Source: patent US20160115540A1, “PRODRUGS AND DRUGS” (Biogen MA Inc., priority 2013, published 2016)
Counter-ions that a name gives are not always drawn.

Tested on: jejunum
Test: Transcriptional profiling on Affymetrix GeneChips, single dose, naïve mice: jejunum
Format: in vivo, C57BL/6 mice
Settings: for Number of differentially expressed genes identified: Jenjunum: Naïve, Single Dose, 100 mpk, vs Vehicle
Procedure: Treated mice were sacrificed at 2, 7, or 12 hours. Tissues (liver, spleen, kidney, jejunum, cortex, hippocampus, striatum and whole blood) were collected and analyzed by transcriptional profiling on mouse Affymetrix GeneChips.
Tissues (liver, spleen, kidney, jejunum, cortex, hippocampus, striatum and whole blood) were collected and analyzed by transcriptional profiling on mouse Affymetrix GeneChips.
Animals were exposed to CO2 and whole blood collected via cardiac puncture. Two 100 μl aliquots of whole blood were collected in 1.5 mL microcentrifuge tubes and snap frozen in liquid nitrogen. Peripheral (liver, spleen, kidney and jejunum) and CNS brain (cerebellum, hippocampus, striatum and cortex) tissues were harvested and snap frozen in liquid nitrogen, with special care taken to collect tissues of similar size and from the same location. All samples were stored at −80° C. until RNA extraction was conducted.
For RNA preparation, frozen tissues were placed in 2 mL RNAse-free 96-well blocks with 1.5 mL QIAzol Lysis Reagent (QIAgen) and a 3.2 mm stainless steel bead (BioSpec Products, Bartlesville, Okla.). Tissues were disrupted for four cycles of 45 seconds in a Mini-Beadbeater (Biospec Products). RNA was extracted in chloroform and the aqueous phase was mixed with an equal volume of 70% ethanol. Extracted RNA was applied to RNeasy 96 plates and purified by the spin method according to the manufacturer's protocol (RNeasy 96 Universal Tissue Protocol, QIAgen, Hilden Germany).
Automated sample amplifications and biotin labelings were carried out using the NuGEN Ovation RNA Amplification system V2 (Cat #3100), Ovation WB reagent (Cat #1300) and Encore Biotin module (Cat #4200) (NuGEN Technologies, Inc, San Carlos, Calif.) according to manufacturer's recommendations using an Arrayplex automated liquid handler (Beckman Coulter, Indianapolis, Ind.). Two micrograms of biotin labeled sscDNA probe were hybridized to Affymetrix GeneChip Affymetrix HT_MG-430_PM plate arrays with modified conditions as described in Allaire et al. Washing and staining of the hybridized arrays were completed as described in the GeneChip Expression analysis technical manual for HT plate arrays using the Genechip® Array Station (Affymetrix, Santa Clara, Calif.) with modifications as described in Allaire et al. The processed GeneChip® plate arrays were scanned using GeneTitan scanner (Affymetrix, Santa Clara, Calif.).
Affymetrix scans were subject to quality control (QC) measures. These tests included a visual inspection of the distribution of raw signal intensities and an assessment of RNA degradation, relative log expression (RLE), and normalized unsealed standard error (NUSE). All sample scans that passed these QC metrics were included in the analysis.
All CEL files were subjected to GC-content-based Robust Multi-array Average (GCRMA) normalization (version 2.20.0) (Irizarry R A, et al. Nucleic Acids Res 2003; 31:e15; Li C, et al. Genome Biol 2001; 2:[…]0032). Expression levels were log (base 2) transformed.
All calculations and analyses were carried out using R (version 2.11.1) and Bioconductor computational tools (Gentleman R. Springer Science+Business Media 2005).

[1] = jejunum, 2 hr after single 100 mg/kg oral dose
[2] = jejunum, 7 hr after single 100 mg/kg oral dose
[3] = jejunum, 12 hr after single 100 mg/kg oral dose

COC(=O)/C=C/C(=O)O [MMF, monomethyl fumarate]
Gstm7 (1419072_PM_at) differential expression (Jejunum, 7 hr): 1.97 | Htatip2 (1451814_PM_a_at) differential expression (Jejunum, 7 hr): 1.68 | Ifit1 (1450783_PM_at) differential expression (Jejunum, 7 hr): −1.95 | Matn2 (1419442_PM_at) differential expression (Jejunum, 7 hr): 1.59 | Me1 (1416632_PM_at) differential expression (Jejunum, 7 hr): 2.01 | Nqo1 (1423627_PM_at) differential expression (Jejunum, 7 hr): 2.63 | Pgd (1423706_PM_a_at) differential expression (Jejunum, 7 hr): 1.55 | Pgm2 (1437240_PM_at) differential expression (Jejunum, 7 hr): 1.54 | Pir (1429001_PM_at) differential expression (Jejunum, 7 hr): 5.12 | Prss8 (1418320_PM_at) differential expression (Jejunum, 7 hr): 1.75 | Rsad2 (1436058_PM_at) differential expression (Jejunum, 7 hr): −1.81 | Rtp4 (1418580_PM_at) differential expression (Jejunum, 7 hr): −1.61 | Setd4 (1435405_PM_at) differential expression (Jejunum, 7 hr): 2.27 | Slc5a4b (1422757_PM_at) differential expression (Jejunum, 7 hr): 1.79 | Slc35e3 (1428805_PM_at) differential expression (Jejunum, 7 hr): 1.67 | Txnrd1 (1424487_PM_x_at) differential expression (Jejunum, 7 hr): 2.07 | Ugt2b5 (1419622_PM_at) differential expression (Jejunum, 7 hr): 4.50 | Ugt2b36 (1455595_PM_at) differential expression (Jejunum, 7 hr): 2.50 | Abcc3 (1428988_PM_at) differential expression (Jejunum, 12 hr): 2.10 | Acsm5 (1437662_PM_at) differential expression (Jejunum, 12 hr): 1.95 | Akr1c12 (1422000_PM_at) differential expression (Jejunum, 12 hr): 1.52 | Akr1c12 /// Akr1c13 (1450455_PM_s_at) differential expression (Jejunum, 12 hr): 1.76 | Akr1c13 (1418672_PM_at) differential expression (Jejunum, 12 hr): 2.01 | Aldh1a7 (1418601_PM_at) differential expression (Jejunum, 12 hr): 1.74 | Apob (1457554_PM_at) differential expression (Jejunum, 12 hr): −1.54 | Blvrb (1451386_PM_at) differential expression (Jejunum, 12 hr): 1.54 | Ces1e (1419510_PM_at) differential expression (Jejunum, 12 hr): 2.77 | Dio1 (1417991_PM_at) differential expression (Jejunum, 12 hr): −1.51 | Ephx1 (1422438_PM_at) differential expression (Jejunum, 12 hr): 2.17 | Fst (1434458_PM_at) differential expression (Jejunum, 12 hr): 1.94 | G6pd2 /// G6pdx (1422327_PM_s_at) differential expression (Jejunum, 12 hr): 1.83 | Gm3776 /// Gsta1 /// Gsta2 (1421041_PM_s_at) differential expression (Jejunum, 12 hr): 2.09 | Gpx2 (1449279_PM_at) differential expression (Jejunum, 12 hr): 1.54 | Gsr (1421816_PM_at) differential expression (Jejunum, 12 hr): 2.67 | Gss (1441931_PM_x_at) differential expression (Jejunum, 12 hr): 1.55 | Gsta3 (1423436_PM_at) differential expression (Jejunum, 12 hr): 10.80 | Gsta4 (1416368_PM_at) differential expression (Jejunum, 12 hr): 2.66 | Gstm1 (1416416_PM_x_at) differential expression (Jejunum, 12 hr): 3.70 | Gstm2 (1416411_PM_at) differential expression (Jejunum, 12 hr): 2.20 | Gstm4 (1424835_PM_at) differential expression (Jejunum, 12 hr): 5.43 | Gstm6 (1422072_PM_a_at) differential expression (Jejunum, 12 hr): 2.19 | Kif1b (1451642_PM_at) differential expression (Jejunum, 12 hr): −1.51 | Nqo1 (1423627_PM_at) differential expression (Jejunum, 12 hr): 2.34 | Pir (1429001_PM_at) differential expression (Jejunum, 12 hr): 4.19 | Setd4 (1435405_PM_at) differential expression (Jejunum, 12 hr): 1.60 | Slc5a4b (1422757_PM_at) differential expression (Jejunum, 12 hr): 2.16 | Ugt2b5 (1419622_PM_at) differential expression (Jejunum, 12 hr): 5.00 | Ugt2b36 (1455595_PM_at) differential expression (Jejunum, 12 hr): 3.03 | Number of differentially expressed genes identified: Jenjunum (2 h after last dosing): 67 | Number of differentially expressed genes identified: Jenjunum (7 h after last dosing): 74 | Number of differentially expressed genes identified: Jenjunum (12 h after last dosing): 45 | 6-Sep (septin 6) mRNA fold change vs vehicle [1]: 1.56 | Bmp2 mRNA fold change vs vehicle [1]: −1.55 | Figf mRNA fold change vs vehicle [1]: 1.63 | Gabarapl1 mRNA fold change vs vehicle [1]: 1.52 | Hfe mRNA fold change vs vehicle [1]: 1.73 | Hmox1 mRNA fold change vs vehicle [1]: 1.81 | Lpin2 mRNA fold change vs vehicle [1]: 1.61 | Lrp8 mRNA fold change vs vehicle [1]: 2.23 | Prr5l mRNA fold change vs vehicle [1]: −1.64 | Slc2a1 mRNA fold change vs vehicle [1]: 1.68 | Slc48a1 mRNA fold change vs vehicle [1]: 1.62 | Slfn2 mRNA fold change vs vehicle [1]: −1.82 | Sos1 mRNA fold change vs vehicle [1]: −1.57 | St3gal6 mRNA fold change vs vehicle [1]: 1.52 | Tkt mRNA fold change vs vehicle [1]: 1.73 | Tnfaip3 mRNA fold change vs vehicle [1]: −1.67 | Abcc2 mRNA fold change vs vehicle [2]: 1.51 | Asns mRNA fold change vs vehicle [2]: 1.60 | Capn13 mRNA fold change vs vehicle [2]: −1.75 | Enkur mRNA fold change vs vehicle [2]: −1.56 | Fam162a mRNA fold change vs vehicle [2]: 1.67 | Gm14446 mRNA fold change vs vehicle [2]: −1.65 | Gstm7 mRNA fold change vs vehicle [2]: 1.97 | Ifit1 mRNA fold change vs vehicle [2]: −1.95 | Matn2 mRNA fold change vs vehicle [2]: 1.59 | Me1 mRNA fold change vs vehicle [2]: 2.01 | Pgd mRNA fold change vs vehicle [2]: 1.55 | Rsad2 mRNA fold change vs vehicle [2]: −1.81 | Rtp4 mRNA fold change vs vehicle [2]: −1.61 | Akr1c12 mRNA fold change vs vehicle [3]: 1.52 | Apob mRNA fold change vs vehicle [3]: −1.54 | Dio1 mRNA fold change vs vehicle [3]: −1.51 | Ephx1 mRNA fold change vs vehicle [3]: 2.17 | Fst mRNA fold change vs vehicle [3]: 1.94 | Kif1b mRNA fold change vs vehicle [3]: −1.51
